Data on 1 compound can be found in article PMC8280128, “Antioxidant and food additive BHA prevents TNF cytotoxicity by acting as a direct RIPK1 inhibitor” (Cell Death & Disease, 2021).

The target of this test is T1, RIPK1 (Homo sapiens, UniProt Q13546).
T1 construct: AA 1–479, GST fusion
T1 sequence (Q13546 1-479): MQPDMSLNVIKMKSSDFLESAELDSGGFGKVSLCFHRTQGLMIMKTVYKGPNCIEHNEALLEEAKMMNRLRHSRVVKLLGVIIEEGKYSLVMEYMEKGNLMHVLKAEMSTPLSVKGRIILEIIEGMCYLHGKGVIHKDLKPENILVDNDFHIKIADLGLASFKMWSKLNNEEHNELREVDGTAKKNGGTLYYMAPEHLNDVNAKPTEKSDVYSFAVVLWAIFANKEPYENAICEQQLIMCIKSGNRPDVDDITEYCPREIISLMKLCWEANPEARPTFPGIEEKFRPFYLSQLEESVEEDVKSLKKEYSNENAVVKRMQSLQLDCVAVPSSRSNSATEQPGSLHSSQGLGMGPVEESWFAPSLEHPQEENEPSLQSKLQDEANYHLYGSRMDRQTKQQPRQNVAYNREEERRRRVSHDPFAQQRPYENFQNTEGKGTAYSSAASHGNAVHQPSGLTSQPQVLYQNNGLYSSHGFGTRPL
Put plainly: ADP-Glo in vitro kinase assay with recombinant RIPK1 ([…] reduction at […]). The class given is biochemical.

As to `CC(C)(C)c1cc(O)ccc1O` [TBHQ], the inhibition at 100 µM was around 60%.
